From patent US11834453B2, “Substituted pyrimido[5,4-d]pyrimidines as HER2 inhibitors” (Array BioPharma Inc., priority 2020, dated 2023)
pIC50: −log10 of the molar value. Read-outs that look alike come from different tables or passages of the source.

Legend:
EGFR wild type (EGFR WT) = EGFR wild type (EGFR WT) (Homo sapiens (Human), UniProt P00533); test: Cellular phosphorylation assay, EGF-stimulated EGFR phosphorylation in engineered NIH 3T3 cells, Phospho-EGFR DuoSet IC ELISA, Assay 5; type: cell-based
Sequence of EGFR wild type (EGFR WT) (P00533 25-1210): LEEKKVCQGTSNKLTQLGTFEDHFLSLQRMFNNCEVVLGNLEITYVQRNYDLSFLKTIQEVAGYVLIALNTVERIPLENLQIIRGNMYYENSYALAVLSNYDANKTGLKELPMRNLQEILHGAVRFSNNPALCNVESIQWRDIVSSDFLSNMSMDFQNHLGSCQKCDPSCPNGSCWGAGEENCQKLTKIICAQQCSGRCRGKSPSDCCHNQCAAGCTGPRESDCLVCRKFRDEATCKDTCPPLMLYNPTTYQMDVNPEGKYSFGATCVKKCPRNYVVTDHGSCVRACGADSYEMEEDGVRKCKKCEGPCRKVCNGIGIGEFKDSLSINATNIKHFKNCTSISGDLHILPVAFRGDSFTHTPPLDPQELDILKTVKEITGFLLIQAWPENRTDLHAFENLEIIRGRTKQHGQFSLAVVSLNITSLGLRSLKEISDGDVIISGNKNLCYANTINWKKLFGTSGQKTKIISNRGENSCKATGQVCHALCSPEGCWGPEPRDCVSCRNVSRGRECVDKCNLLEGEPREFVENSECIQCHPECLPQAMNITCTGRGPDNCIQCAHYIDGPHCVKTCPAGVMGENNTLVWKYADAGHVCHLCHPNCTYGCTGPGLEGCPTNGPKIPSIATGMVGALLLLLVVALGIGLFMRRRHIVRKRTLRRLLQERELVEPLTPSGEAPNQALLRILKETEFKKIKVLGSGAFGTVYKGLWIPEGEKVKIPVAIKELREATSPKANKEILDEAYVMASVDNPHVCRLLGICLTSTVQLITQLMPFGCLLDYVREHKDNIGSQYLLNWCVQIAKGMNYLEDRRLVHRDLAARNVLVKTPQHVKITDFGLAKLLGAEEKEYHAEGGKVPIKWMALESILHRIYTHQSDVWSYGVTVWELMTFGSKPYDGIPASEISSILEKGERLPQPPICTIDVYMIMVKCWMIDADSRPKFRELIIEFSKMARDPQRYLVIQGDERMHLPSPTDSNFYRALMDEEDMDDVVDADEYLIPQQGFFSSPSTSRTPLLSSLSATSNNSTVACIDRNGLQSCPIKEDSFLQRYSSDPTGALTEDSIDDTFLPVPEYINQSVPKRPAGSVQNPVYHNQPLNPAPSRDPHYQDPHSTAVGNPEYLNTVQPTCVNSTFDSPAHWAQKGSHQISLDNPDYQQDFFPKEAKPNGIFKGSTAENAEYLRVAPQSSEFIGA
Method in brief: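 NIH 3T3 cells expressing EGFR WT (20,000/well, attached overnight) were exposed to serially diluted compound for 1 h at 37 °C, then stimulated with 100 ng/ml rEGF for 10 min. Phospho-EGFR in lysates measured by sandwich ELISA optical density; IC50 from curves.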

EGFR = EGFR (Homo sapiens (Human), UniProt P00533); test: ErbB enzyme assay (CisBio HTRF KinEASE-TK), Assay 3; type: biochemical
Sequence of EGFR (P00533 25-1210): as above
Method in brief: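 Inhibition is measured as reduced peptide phosphorylation by HTRF KinEASE-TK at 1 mM ATP and 250 nM substrate, 30 min at 22 °C. Values are IC50s from a 4-parameter logistic fit.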

[1] = molecular target: ErbB2 insYVMA (HER2-YVMA, SEQ ID NO: 2) (Homo sapiens, UniProt P04626, INS775YVMA/P1170A); test: biochemical; settings: ErbB2 insYVMA enzyme assay; for pIC50: read-out: Assay 1 IC50; for IC50: Assay 1 IC50 (nM)
BCRP = BCRP (Homo sapiens (Human), UniProt Q9UNQ0); test: BCRP transfected MDCKII canine Mdr1 knockout permeability/efflux, Assay 9; settings: efflux ratio Papp(B-A)/Papp(A-B), BCRP transfected MDCKII canine Mdr1 knockout; for efflux ratio at 2 h, 1 μM: dog, Assay 9 Pe Ratio
Sequence of BCRP (Q9UNQ0 whole entry): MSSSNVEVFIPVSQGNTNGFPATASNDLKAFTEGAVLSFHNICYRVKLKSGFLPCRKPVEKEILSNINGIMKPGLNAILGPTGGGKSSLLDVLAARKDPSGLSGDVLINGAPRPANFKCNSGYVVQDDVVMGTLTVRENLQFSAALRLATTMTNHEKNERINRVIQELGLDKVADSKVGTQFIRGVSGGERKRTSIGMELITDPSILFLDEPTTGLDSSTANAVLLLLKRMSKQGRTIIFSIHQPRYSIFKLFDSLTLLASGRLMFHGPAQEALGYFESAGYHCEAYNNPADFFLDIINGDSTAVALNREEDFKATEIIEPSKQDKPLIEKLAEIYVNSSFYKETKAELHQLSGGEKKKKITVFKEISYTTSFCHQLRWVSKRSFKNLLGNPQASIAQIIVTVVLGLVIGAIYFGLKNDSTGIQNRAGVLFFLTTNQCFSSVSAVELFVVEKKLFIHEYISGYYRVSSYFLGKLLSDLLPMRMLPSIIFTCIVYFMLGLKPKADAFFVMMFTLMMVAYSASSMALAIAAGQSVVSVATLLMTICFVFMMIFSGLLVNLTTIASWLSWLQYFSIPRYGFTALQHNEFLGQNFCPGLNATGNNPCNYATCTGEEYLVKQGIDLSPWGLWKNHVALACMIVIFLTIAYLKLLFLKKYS
Procedure: BCRP transfected MDCKII cells (Assay 8) and BCRP transfected MDCKII canine Mdr1 knockout cells (Assay 9) were cultured and plated according to manufacturer's recommendations.
Both positive and negative controls were used to assess functionality of P-gp or BCRP efflux in the assays. Stock solutions for assay controls and the test article were prepared in DMSO for final test concentration of 1 μM. Final organic concentration in the assay was 1%. All dosing solutions contained 10 μM lucifer yellow to monitor MDCKII cell monolayer integrity.
For the apical to basolateral determination (A to B), 75 μL of the test article in transport buffer were added to the apical side of the individual transwells and 250 μL of basolateral media, without compound or lucifer yellow, were added to each well. For the basolateral to apical determination (B to A), 250 μL of test article in transport buffer were added to each well and 75 μL transport buffer, without compound or lucifer yellow, were added to each transwell. All tests were performed in triplicate, and each compound was tested for both apical to basolateral and basolateral to apical transport. The plates were incubated for 2 hours on a Lab-Line Instruments Titer Orbital Shaker (VWR, West Chester, PA) at 50 rpm and 37° C. with 5% CO2. All culture plates were removed from the incubator, 50 μL of media were removed from the apical and basolateral portion of each well, and added to 150 μL of 1 μM labetalol in 2:1 acetonitrile (ACN): H2O, v/v.
The plates were read using a Molecular Devices (Sunnyvale, CA) Gemini Fluorometer to evaluate the lucifer yellow concentrations at excitation/emission wavelengths of 425/535 nm. […] The plates were sealed, and the contents of each well analyzed by LC MS/MS. The compound concentrations were determined from the ratio of the peak areas of the compound to the internal standard (labetalol) in comparison to the dosing solution.
A MDS Sciex API 4000 (Applied Biosystems, Foster City, CA) mass spectrometer was used for detection of the analytes in the ion spray positive mode. Analyte responses were measured by multiple reaction monitoring (“MRM”) of transitions unique to each compound (the protonated precursor ion and selected product ions for each test article and m/z 329 to m/z 162 for labetalol, the internal standard.
The total run time, including re-equilibration, for a single injection was 1.2 minutes. […] The total run time, including re-equilibration, for a single injection was 0.61 minutes.
An efflux ratio is calculated from the mean apical to basolateral (A-B) Papp data and basolateral to apical (B-A) Papp data: Efflux ratio=Papp(B−A)/Papp(A−B)

MDR1 (P-gp) = MDR1 (P-gp) (Homo sapiens (Human), UniProt P08183); test: MDR1 transfected LLC-PK1 permeability/efflux, Assay 6; settings: efflux ratio Papp(B-A)/Papp(A-B), MDR1 transfected LLC-PK1; for efflux ratio at 2 h, 1 μM: pig, LLC-PK1, Assay 6 Pe Ratio
Sequence of MDR1 (P-gp) (P08183 whole entry): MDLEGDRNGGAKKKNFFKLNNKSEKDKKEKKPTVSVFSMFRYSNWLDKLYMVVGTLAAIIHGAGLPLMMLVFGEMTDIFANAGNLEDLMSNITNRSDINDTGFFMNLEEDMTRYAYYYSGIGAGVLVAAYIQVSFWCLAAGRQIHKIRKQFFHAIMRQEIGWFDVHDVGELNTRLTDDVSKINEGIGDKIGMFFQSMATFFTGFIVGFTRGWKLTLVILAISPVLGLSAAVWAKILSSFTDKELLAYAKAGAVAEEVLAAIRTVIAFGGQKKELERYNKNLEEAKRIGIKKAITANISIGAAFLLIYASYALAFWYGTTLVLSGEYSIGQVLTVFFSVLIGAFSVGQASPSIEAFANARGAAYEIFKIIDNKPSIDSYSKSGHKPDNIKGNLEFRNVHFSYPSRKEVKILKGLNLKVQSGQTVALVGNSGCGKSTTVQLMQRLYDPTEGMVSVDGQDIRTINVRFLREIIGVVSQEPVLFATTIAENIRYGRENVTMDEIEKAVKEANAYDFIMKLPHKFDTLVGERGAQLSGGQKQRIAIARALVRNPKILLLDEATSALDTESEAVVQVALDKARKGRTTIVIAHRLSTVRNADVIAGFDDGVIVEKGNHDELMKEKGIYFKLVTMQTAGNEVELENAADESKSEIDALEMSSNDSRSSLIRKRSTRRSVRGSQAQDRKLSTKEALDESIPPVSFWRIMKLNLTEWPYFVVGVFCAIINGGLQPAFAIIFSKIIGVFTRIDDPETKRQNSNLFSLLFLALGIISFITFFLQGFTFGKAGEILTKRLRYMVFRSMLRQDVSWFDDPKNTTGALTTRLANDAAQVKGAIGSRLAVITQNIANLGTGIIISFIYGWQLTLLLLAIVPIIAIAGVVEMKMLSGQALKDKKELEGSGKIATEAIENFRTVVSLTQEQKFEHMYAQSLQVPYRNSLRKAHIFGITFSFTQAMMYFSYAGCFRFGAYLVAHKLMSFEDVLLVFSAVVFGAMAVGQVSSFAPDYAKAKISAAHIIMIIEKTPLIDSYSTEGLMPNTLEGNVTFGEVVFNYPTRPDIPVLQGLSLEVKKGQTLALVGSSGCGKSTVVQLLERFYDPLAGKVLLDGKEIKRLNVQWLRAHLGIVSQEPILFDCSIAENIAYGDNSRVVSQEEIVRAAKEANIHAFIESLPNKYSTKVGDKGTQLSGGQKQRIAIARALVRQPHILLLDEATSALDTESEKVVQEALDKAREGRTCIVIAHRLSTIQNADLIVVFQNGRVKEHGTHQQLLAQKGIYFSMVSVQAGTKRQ

ErbB2 WT = ErbB2 WT (Homo sapiens (Human), UniProt P04626); test: ErbB enzyme assay (CisBio HTRF KinEASE-TK), Assay 2; type: biochemical
Method in brief: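 ErbB2 phosphorylates 250 nM biotin-TK substrate at 1 mM ATP in 25 mM HEPES pH 7.4, 10 mM MgCl2, 0.01% Triton X-100 and 2% DMSO, for 30 min at 22 °C. Product is detected by HTRF with Sa-XL665 and TK-Ab-Cryptate. Percent of control is set by DMSO-only wells and pre-quenched wells.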

[2] = molecular target: ErbB2 with Exon 20 YVMA insertion (HER2-YVMA) (Homo sapiens (Human), UniProt P04626, INS775YVMA); test: Cellular phosphorylation assay, constitutive ErbB2 phosphorylation (Y1196) in engineered NIH 3T3 cells, Assay 4; type: cell-based
Method in brief: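 Engineered NIH 3T3 cells expressing HER2-YVMA treated with compounds 1 h at 37 °C, then formaldehyde-fixed and methanol-permeabilized. pErbB2 Y1196 detected by in-cell infrared immunofluorescence, normalized to GAPDH. IC50 from the normalized curves.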

Row | Structure (SMILES) | pIC50 (EGFR wild type (EGFR WT)) | pIC50 (EGFR) | pIC50 [1] | efflux ratio at 2 h, 1 μM (BCRP) | efflux ratio at 2 h, 1 μM (MDR1 (P-gp)) | pIC50 (ErbB2 WT) | pIC50 [2] | IC50 [1] [nM] | Assay 9 Pe Ratio (BCRP) | Assay 6 Pe Ratio (MDR1 (P-gp))
1 | Cc1cc(Nc2ncnc3cnc(N4C[C@@H]5C[C@H]4CO5)nc23)ccc1Oc1ccc2c(c1)ncn2C [Example 274] | ≤ 5.30 | 5.49 | 7.51 | 1.7 | 2.4 | 7.41 | 7.92 | – | – | –
2 | Cc1cc(Nc2ncnc3cnc(N4CCOCC4)nc23)ccc1Oc1cc(F)c2c(c1)ncn2C.O=C(O)C(F)(F)F [Example 70, N-(4-((7-fluoro-1-methyl-1H-benzo[d]imidazol-5-yl)oxy)-3-methylphenyl)-6-morpholinopyrimido[5,4-d]pyrimidin-4-amine 2,2,2-trifluoroacetate] | ≤ 5.30 | ≤ 5.00 | – | 1 | 1.8 | 7.15 | 8.31 | 106 | – | –
3 | Cc1cc(Nc2ncnc3cnc(N4CCCC4)nc23)ccc1Oc1ccc2c(c1)ncn2C [Example 222] | ≤ 5.30 | ≤ 5.00 | 7.46 | 1.6 | 1 | 7.39 | 7.41 | – | – | –
4 | Cc1cc(Nc2ncnc3cnc(N4CCO[C@H]5C[C@H]54)nc23)ccc1Oc1ccc2c(c1)ncn2C [Example 161, 6-((1S,6R)-2-oxa-5-azabicyclo[4.1.0]heptan-5-yl)-N-(3-methyl-4-((1-methyl-1H-benzo[d]imidazol-5-yl)oxy)phenyl)pyrimido[5,4-d]pyrimidin-4-amine] | ≤ 5.30 | 5.08 | 7.74 | 1.2 | 1.8 | 7.54 | 7.80 | – | – | –
5 | Cc1cc(Nc2ncnc3cnc(N4CC[C@H](C(F)F)C4)nc23)ccc1Oc1ccc2c(c1)ncn2C [Example 252] | ≤ 5.30 | ≤ 5.00 | 7.03 | 2.6 | 0.7 | 6.62 | 7.59 | – | – | –
6 | Cc1cc(Nc2ncnc3cnc(N4C(C)CCS4(=O)=O)nc23)ccc1Oc1ccc2c(c1)ncn2C.O=C(O)C(F)(F)F (centres unmarked) [Example 79, 3-methyl-2-(8-((3-methyl-4-((1-methyl-1H-benzo[d]imidazol-5-yl)oxy)phenyl)amino)pyrimido[5,4-d]pyrimidin-2-yl)isothiazolidine 1,1-dioxide 2,2,2-trifluoroacetate] | ≤ 5.30 | 5.46 | – | 9.8 | 7.1 | 7.47 | 8.11 | 26.3 | – | –
7 | Cc1cc(Nc2ncnc3cnc(N4CCO[C@H]5C[C@H]54)nc23)ccc1Oc1ccc2c(c1)ncn2C (single isomer, unassigned) [Example 60a] | ≤ 5.30 | 5.08 | 7.74 | 1.2 | 1.8 | 7.54 | 7.80 | – | – | –
8 | Cc1cc(Nc2ncnc3cnc(N(C)CC4CCO4)nc23)ccc1Oc1ccc2c(c1)ncn2C (centres unmarked) [Example 350] | ≤ 5.30 | ≤ 5.00 | 7.40 | 3.5 | 1.9 | 7.08 | 7.58 | – | – | –
9 | Cc1cc(Nc2ncnc3cnc(N4CCO[C@H]5C[C@H]54)nc23)ccc1Oc1ccc2c(c1)ncn2C (single isomer, unassigned) [Example 60b] | ≤ 5.30 | 5.25 | 7.79 | – | – | 7.73 | 7.75 | – | 1.4 | 1.9
10 | Cc1cc(Nc2ncnc3cnc(-c4cccnc4)nc23)ccc1Oc1ccc2c(c1)ncn2C [Example 233] | ≤ 5.30 | 5.43 | 7.56 | 1.6 | 1.5 | 7.38 | 7.80 | – | – | –
11 | Cc1cc(Nc2ncnc3cnc(-c4ccncc4)nc23)ccc1Oc1ccc2c(c1)ncn2C [Example 47, N-(3-methyl-4-((1-methyl-1H-benzo[d]imidazol-5-yl)oxy)phenyl)-6-(pyridin-4-yl)pyrimido[5,4-d]pyrimidin-4-amine bis(2,2,2-trifluoroacetate)] | ≤ 5.30 | ≤ 5.00 | 7.22 | 2.3 | 1.1 | 7.04 | 7.87 | – | – | –
12 | Cc1cc(Nc2ncnc3cnc(N4C[C@H]5C[C@@H]4CO5)nc23)ccc1Oc1ccc2c(c1)ncn2C [Example 262] | ≤ 5.30 | ≤ 5.00 | 7.65 | 2.7 | 1.7 | 6.93 | 7.36 | – | – | –
13 | [2H]c1nc(Nc2ccc(Oc3ccc4c(c3)ncn4C)c(C)c2)c2nc(N3CCOCC3)nc([2H])c2n1 [Example 68, N-(3-methyl-4-((1-methyl-1H-benzo[d]imidazol-5-yl)oxy)phenyl)-6-morpholinopyrimido[5,4-d]pyrimidin-2,8-d2-4-amine] | ≤ 5.30 | 5.08 | 7.99 | 0.9 | 1.8 | 7.79 | 7.97 | – | – | –
14 | Cc1cc(Nc2ncnc3cnc(-c4cnsc4)nc23)ccc1Oc1ccc2c(c1)ncn2C [Example 228] | ≤ 5.30 | ≤ 5.00 | 6.94 | 1 | 1.1 | 6.57 | 7.62 | – | – | –
15 | Cc1cc(Nc2ncnc3cnc(N4CCC[C@H]4C(F)(F)F)nc23)ccc1Oc1ccc2c(c1)ncn2C [Example 249] | ≤ 5.30 | ≤ 5.00 | 7.44 | 3 | 0.3 | 7.63 | 7.43 | – | – | –
16 | Cc1cc(Nc2ncnc3cnc(N4CC5CC4CO5)nc23)ccc1Oc1ccc2c(c1)ncn2C.O=C(O)C(F)(F)F (centres unmarked) [Example 77, 6-(2-oxa-5-azabicyclo[2.2.1]heptan-5-yl)-N-(3-methyl-4-((1-methyl-1H-benzo[d]imidazol-5-yl)oxy)phenyl)pyrimido[5,4-d]pyrimidin-4-amine 2,2,2-trifluoroacetate] | ≤ 5.30 | ≤ 5.00 | – | 1.9 | 1.7 | 7.31 | 7.76 | 26 | – | –
17 | Cc1cc(Nc2ncnc3cnc(-c4ccccn4)nc23)ccc1Oc1ccc2c(c1)ncn2C [Example 239] | ≤ 5.30 | ≤ 5.00 | 6.90 | 3.5 | 2.1 | 6.97 | 8.04 | – | – | –
18 | Cc1cc(Nc2ncnc3cnc(N4C[C@H]5CC[C@@H]4CO5)nc23)ccc1Oc1ccc2c(c1)ncn2C [Example 54, 6-((1R,4R)-2-oxa-5-azabicyclo[2.2.2]octan-5-yl)-N-(3-methyl-4-((1-methyl-1H-benzo[d]imidazol-5-yl)oxy)phenyl)pyrimido[5,4-d]pyrimidin-4-amine] | ≤ 5.30 | 5.47 | 8.25 | 1.1 | 1.4 | 7.50 | 7.75 | – | – | –
19 | Cc1cc(Nc2ncnc3cnc(N4C5CCC4COC5)nc23)ccc1Oc1ccc2c(c1)ncn2C [Example 59, 6-(3-oxa-8-azabicyclo[3.2.1]octan-8-yl)-N-(3-methyl-4-((1-methyl-1H-benzo[d]imidazol-5-yl)oxy)phenyl)pyrimido[5,4-d]pyrimidin-4-amine] | ≤ 5.30 | ≤ 5.00 | 7.53 | 7.4 | 2 | 7.35 | 7.63 | – | – | –
20 | CON1CCN(c2ncc3ncnc(Nc4ccc(Oc5ccc6c(c5)ncn6C)c(C)c4)c3n2)CC1 [Example 35, 6-(4-methoxypiperazin-1-yl)-N-(3-methyl-4-((1-methyl-1H-benzo[d]imidazol-5-yl)oxy)phenyl)pyrimido[5,4-d]pyrimidin-4-amine] | ≤ 5.30 | ≤ 5.00 | 7.47 | 1.2 | 1.3 | 7.03 | 8.11 | – | – | –
